Measured values: PMC8080595, “Discovery of a novel RORγ antagonist with skin-restricted exposure for topical treatment of mild to moderate psoriasis” (Scientific Reports, 2021)

How the values were obtained:
[1] = system: IL-17 secretion from human PBMCs; test: Human IL-17 production assay using human PBMC; assay type: cell-based; settings: cytostim stimulation 72 h
Method: To confirm cellular on-target effects, we investigated the inhibition of selected RORγ antagonists on RORγ-regulated IL-17 secretion using human PBMC. Human IL-17-producing cells were readily formed following cytostim stimulation. In human PBMC stimulated with cytostim for 72 h, differentiation of Th17 cells was confirmed by increased secretion of IL-17 (291 pg/mL) in cell culture supernatant compared to basal level of IL-17 (20 pg/mL IL-17 without cytostim stimulation), […] of IL-17 secretion.
Human PBMCs (Zenbio) in TexMACS media were stimulated by cytostim (Miltenyi) for 72 h following the vendor's instruction. Human IL-17A in cell culture supernatant was measured using AlphaLISA human IL-17A Biotin-free detection kit (Perkin Elmer) according to the manufacturer’s protocol.

RORγ = biological target: T1, RORγ (Homo sapiens, UniProt P51449); test: RORγ luciferase reporter assay; assay type: cell-based; settings: nuclear reporter assay, n = 3; read-out: inhibition of the RORγ transcriptional activity, average IC50
T1 sequence (P51449 260-518 limits assumed): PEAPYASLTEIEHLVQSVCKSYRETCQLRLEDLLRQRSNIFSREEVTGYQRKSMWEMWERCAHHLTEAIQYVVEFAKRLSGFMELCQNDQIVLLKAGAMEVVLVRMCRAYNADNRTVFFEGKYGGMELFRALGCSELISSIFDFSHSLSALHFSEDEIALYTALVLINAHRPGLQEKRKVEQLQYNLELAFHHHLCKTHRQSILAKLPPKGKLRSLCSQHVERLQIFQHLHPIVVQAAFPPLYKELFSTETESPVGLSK
Method: Ursolic acid was used as a positive control.
(§1) Cell-based luciferase reporter assays for RORα and RORγ (Indigo Biosciences) were performed according to the manufacturer’s protocol.

RORα = biological target: T2, RORα (Homo sapiens, UniProt P35398); test: RORα luciferase reporter assay; assay type: cell-based; settings: up to 10,000 nM, n = 3
T2 sequence (P35398 272-523 limits assumed): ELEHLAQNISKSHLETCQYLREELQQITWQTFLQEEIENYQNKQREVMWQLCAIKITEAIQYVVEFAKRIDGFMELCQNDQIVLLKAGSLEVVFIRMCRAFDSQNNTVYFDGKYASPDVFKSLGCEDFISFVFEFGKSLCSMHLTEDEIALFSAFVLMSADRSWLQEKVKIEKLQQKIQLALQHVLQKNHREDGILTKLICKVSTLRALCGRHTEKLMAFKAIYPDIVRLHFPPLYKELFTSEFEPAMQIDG
Method: We next assessed the selectivity of SHR168442 against another ROR family member, RORα, using nuclear reporter assay. […] ATRA (all trans-retinoic acid) was used as a positive control in the assay.
as §1

[2] = system: IL-17 secretion in mouse splenocyte; test: Mouse IL-17 production assay using mouse splenocyte; assay type: cell-based; settings: Th17 differentiation, 72 h, n = 3, read-out: inhibition of secretion of IL-17 in mouse splenocyte, average IC50
Method: To evaluate the impact of SHR168442 on IL-17 secretion in mouse cells, the mouse Th17 cell differentiation kit from R&D Systems was used to polarize the mouse spleen cells. Differentiation of Th17 cells in mouse splenocyte for 72 h was confirmed by secretion of IL-17 in culture supernatant, 93 pg/mL in average (2.7 pg/mL without differentiation), a 34-fold increase of IL-17 secretion.
Mouse splenocytes (Zenbio) were stimulated by Mouse Th17 Differentiation Media (R&D Systems) according to the manufacturer’s protocol. On day 5, compounds were added and then incubated for 72 h, and IL-17 in the supernatant was measured using IL-17A homodimer (mouse) AlphaLISA detection kit (Perkin Elmer) according to the manufacturer’s protocol.

Dermal PK, miniature pig = assay type: in vivo, Bama miniature pig; settings: for Exposure in plasma: topical
Method: Similar procedures were carried out for dermal PK of female SD rats and female Bama miniature pigs. Briefly, each area of topical application was 4 cm × 9 cm for SD rats and 6 cm × 6 cm for miniature pigs. After decontamination, the biopsy sections of SD rats were tape stripped for five times and those of miniature pig for twenty-five times, respectively. Blood and dorsal skin tissues of the animals were collected and analyzed for the compounds via LC/MS. The experimental protocol used in this study was approved by the Institutional Animal Care and Use Committees (IACUC). The experiments were conducted in accordance with the Guiding Principles for the Care and Use of Laboratory Animals and complied with the ARRIVE guidelines.

[3] = system: IL-23-induced psoriasis-like skin inflammation mice; test: IL-23-induced psoriasis-like skin inflammation mouse model, topical treatment; assay type: in vivo; settings: for IL17 / IL-6 / TNFα / Thickness of the back skin: day 8, Mean ± SEM, n = 10
Method: Psoriasis was induced by intradermal injection of IL-23 on mouse skin as described by Rizzo et al.[19]. Three days later after shaving (day 1), two injections of IL-23 (0.5 µg protein per mouse) were performed on both sides of the dorsal skin (except naïve group) for 8 days. SHR168442 in Vaseline was topically applied daily starting three day before IL-23 injections, and then twice a day starting on the day of IL-23 injections. The mice were weighed daily, and the skin were scored daily on a scale from 0 to 4. At day 8, the skin thickness was measured in live mice with a caliper and the animal was sacrificed 3 h after the first topical application. The in-life portion of the study was carried out at Nanjing University (Nanjing, China). The experimental protocol used in this study was approved by IACUC in Nanjing, China. The experiments were conducted in accordance with the Guiding Principles for the Care and Use of Laboratory Animals and complied with the ARRIVE guidelines.
IL-17A, IL-6 and TNFα were determined in plasma collected at day 8 using a cytometric bead array (BD Biosciences) following the vendor's instruction.

SMILES: CCS(=O)(=O)c1ccc([C@H](CCO)c2nc3c(Cl)c(N4CCC(F)(F)CC4)c(Cl)cc3[nH]2)cc1 [SHR168442, (S)-3-(4,6-dichloro-5-(4,4-difluoropiperidin-1-yl)-1H-benzo[d]imidazol-2-yl)-3-(4-(ethylsulfonyl)phenyl)propan-1-ol]
- EC50 [1]: 20 ± 6 nM
- IC50 [1]: 20 nM
- IC50 (RORγ): 15 ± 9 nM
- effect on RORα reporter activity (RORα): little effect
- IC50 [2]: 54 ± 12 nM
- Exposure in plasma (Dermal PK, miniature pig; 2% in Vaseline, 3 h): blq (below limit of quantitation (< 6 ng/mL))
- Exposure in plasma (Dermal PK, miniature pig; 2% in Vaseline, 6 h): blq (below limit of quantitation (< 6 ng/mL))
- Exposure in plasma (Dermal PK, miniature pig; 2% in Vaseline, 24 h): blq (below limit of quantitation (< 6 ng/mL))
- Exposure in plasma (Dermal PK, miniature pig; 8% in Vaseline, 3 h): blq (below limit of quantitation (< 6 ng/mL))
- Exposure in plasma (Dermal PK, miniature pig; 8% in Vaseline, 6 h): blq (below limit of quantitation (< 6 ng/mL))
- Exposure in plasma (Dermal PK, miniature pig; 8% in Vaseline, 24 h): blq (below limit of quantitation (< 6 ng/mL))
- systemic exposures in miniature pigs (Dermal PK, miniature pig; female, Bama, pig, in vivo): < 6 ng/mL
- IL17 ([3]; 0.5% in Vaseline topical): 190 ± 28 fg/mL
- IL-6 ([3]; 0.5% in Vaseline topical): 124 ± 32 fg/mL
- TNFα ([3]; 0.5% in Vaseline topical): 5495 ± 837 fg/mL
- Thickness of the back skin ([3]; 0.5% in Vaseline topical): 0.452 ± 0.020 mm
- clinical scores ([3]; 0.5%, 2%, 8% in Vaseline topical, scale 0 to 4): reduce clinical scores in a dose-dependent manner
- IL17 ([3]; 2% in Vaseline topical): 172 ± 38 fg/mL
- IL-6 ([3]; 2% in Vaseline topical): 112 ± 43 fg/mL
- TNFα ([3]; 2% in Vaseline topical): 4284 ± 804 fg/mL
- Thickness of the back skin ([3]; 2% in Vaseline topical): 0.436 ± 0.019 mm
- IL17 ([3]; 8% in Vaseline topical): 185 ± 35 fg/mL
- IL-6 ([3]; 8% in Vaseline topical): 123 ± 37 fg/mL
- TNFα ([3]; 8% in Vaseline topical): 3380 ± 491 fg/mL
- Thickness of the back skin ([3]; 8% in Vaseline topical): 0.330 ± 0.015 mm
- reduction of skin thickness ([3]; 8% topical, relative to vehicle and naïve group): 97%
- body weight ([3]; all treatment groups): no significant body weight loss
